The record followed here is patent publication US20240270732A1, “RECEPTOR-INTERACTING PROTEIN INHIBITOR, PREPARATION METHOD THEREFOR, AND USE THEREOF” (CHENGDU BIOBEL BIOTECHNOLOGY CO., LTD, priority 2021, published 2024).

A value given as a limit tells only on which side of the number the result lay.

For one experiment, the system named is U937 cells. The experiment is described as follows: Inhibition of necrosis of U937 cells induced by TNF-α (CellTiter-Glo). The format is cell-based. As to conditions: Homo sapiens, U-937; TNF-α 100 ng/ml + AT-406 1 μM + z-VAD-FMK 20 μM, 24 h. On the procedure: (§1) After the cells were incubated in a 5% CO2 incubator at 37° C. for 24 h, the test compound of the present invention and the control compound were diluted to the corresponding pre-determined concentration using the medium, and added to the 384-well plate at 5 μL/well. […] Then, 30 μL of CellTiter-Glo luminescent solution was added to each well, and shaken for 2 min. After standing at room temperature for 10 min, the absorbance was measured using an enzyme-linked immunosorbent assay (ELISA). […] A is the group without necrosis-inducing agents, and B is the group with necrosis-inducing agents.
(In general: Cellular ATP, detected with luciferase, serves as a proxy for viable cell number.)

Another experiment deals with HacaT cells. The experiment is described as follows: Inhibition of necrosis of HacaT cells induced by TNF-α (CellTiter-Glo). The experiment is classed as cell-based. As to conditions: Homo sapiens, TNF-α 100 ng/ml + AT-406 1 μM + z-VAD-FMK 20 μM, 24 h. How it is done: […] (purchased from ATCC) in logarithmic growth phase were collected and resuspended in 1640 medium, and then the cell concentration was adjusted to 20 cells/μL, to obtain cell suspension, which was seeded in 384-well plate, with 20 μL cell suspension for each well. After the cells were cultured in a 5% CO2 incubator at 37° C. for 24 h, the test compound of the present invention and the control compound were diluted to the corresponding pre-determined concentration using the medium, and added to the 384-well plate at 5 µL/well. […] Then, 30 μL of CellTiter-Glo luminescent solution was added to each well, and shaken for 2 min. After standing at room temperature for 10 min, the absorbance was measured using ELISA. […] A is the group without necrosis-inducing agents, and B is the group with necrosis-inducing agents.

For experiment [1], the system named is human colon cancer cells HT-29. Put plainly: Inhibition of necrosis of HT-29 cells induced by TNF-α (CellTiter-Glo). As to conditions: TNF-α 100 ng/ml + AT-406 1 μM + z-VAD-FMK 20 μM, 24 h. The experiment is classed as cell-based. On the procedure:
as §1, with “ELISA.” for “an enzyme-linked immunosorbent assay (ELISA).”, “agents. […] A is the group without necrosis-inducing agents, B is the group with necrosis-inducing agents, and X is the group with compounds and necrosis-inducing agents.” for “agents.”

For experiment [2], the system named is human pancreatic cancer cells PANC-1. The experiment is described as follows: Inhibition of necrosis of PANC-1 cells induced by TNF-α (CellTiter-Glo). As to conditions: TNF-α 100 ng/ml + AT-406 1 μM + z-VAD-FMK 20 μM, 24 h. The experiment is classed as cell-based. How it is done:
as §1, with “ELISA.” for “an enzyme-linked immunosorbent assay (ELISA).”, “agents. […] A is the group without necrosis-inducing agents, B is the group with necrosis-inducing agents, and X is the group with compounds and necrosis-inducing agents.” for “agents.”

For the next experiment, the target named is human RIP1 kinase (Homo sapiens (Human), UniProt Q13546). Put plainly: Inhibitory activity on RIP1 kinase (ADP-Glo). Conditions: human RIP kinase 25 nM. The format is biochemical. On the procedure:
The compound of the present invention and the control compound were dissolved in the assay buffer (50 mM Hepes pH 7.5, 50 mM NaCl, 30 mM MgCl2, 1 mM DTT, 0.02% CHAPS, 0.5 mg/mL BSA), and diluted in a ratio of 1:1.5 using a 22-point titration (high concentration 2 μM), and then added to a 384-well plate. […] After completion of the reaction, 5 μL of ADP-Glo reagent containing 0.02% CHAPS was added to each well and incubated at room temperature for 1 h to terminate the kinase reaction and use up all remaining ATP. Then, 5 μL of ADP-Glo detection solution containing 0.02% CHAPS was added to each well and incubated at room temperature for 30 min to measure the emittance intensity. For each ATP concentration, the activity data was obtained by the emittance intensity minus the control intensity.

Chain of human RIP1 kinase (Q13546 whole entry): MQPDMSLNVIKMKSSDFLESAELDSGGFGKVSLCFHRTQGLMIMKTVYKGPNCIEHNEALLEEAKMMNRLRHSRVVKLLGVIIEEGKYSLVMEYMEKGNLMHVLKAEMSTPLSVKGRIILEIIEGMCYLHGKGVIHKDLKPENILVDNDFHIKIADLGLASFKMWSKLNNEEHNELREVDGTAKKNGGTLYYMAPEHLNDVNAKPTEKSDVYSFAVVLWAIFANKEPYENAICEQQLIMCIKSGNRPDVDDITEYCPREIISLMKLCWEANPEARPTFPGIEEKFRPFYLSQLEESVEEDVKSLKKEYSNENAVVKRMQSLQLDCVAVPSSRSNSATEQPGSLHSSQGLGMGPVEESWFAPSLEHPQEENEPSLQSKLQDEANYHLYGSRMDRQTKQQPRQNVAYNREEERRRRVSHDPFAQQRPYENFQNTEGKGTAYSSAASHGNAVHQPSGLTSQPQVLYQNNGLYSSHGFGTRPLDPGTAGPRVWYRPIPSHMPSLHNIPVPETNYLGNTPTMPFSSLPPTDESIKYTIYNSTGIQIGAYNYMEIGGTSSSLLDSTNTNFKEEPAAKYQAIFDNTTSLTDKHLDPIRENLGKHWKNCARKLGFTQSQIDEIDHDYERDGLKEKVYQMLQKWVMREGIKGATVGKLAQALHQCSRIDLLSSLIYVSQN

In the case of `C[C@H]1Oc2ccc(C#CCN3CCN(CC#Cc4ccc5c(c4)N(C)C(=O)[C@@H](NC(=O)c4n[nH]c(Cc6ccccc6)n4)[C@@H](C)O5)CC3)cc2N(C)C(=O)[C@H]1NC(=O)c1n[nH]c(Cc2ccccc2)n1` [Compound I-2], the IC50 – broadly, the midpoint of a concentration-inhibition curve – with U937 cells was found to be 4.47 nM; with HacaT cells, 3.89 nM; in experiment [1] (Homo sapiens, HT-29), 13 nM; in experiment [2] (Homo sapiens, PANC-1), 24.4 nM.

With `CN1C(=O)[C@@H](NC(=O)c2n[nH]c(Cc3ccccc3)n2)COc2ccc(C#CCN3CCN(CC#Cc4ccc5c(c4)N(C)C(=O)[C@@H](NC(=O)c4n[nH]c(Cc6ccccc6)n4)CO5)CC3)cc21` [Compound I-11], the IC50 with U937 cells is 2.09 nM; with HacaT cells, 2.97 nM; in experiment [1] (Homo sapiens, HT-29), 10.8 nM; in experiment [2] (Homo sapiens, PANC-1), 20.4 nM.

On human RIP1 kinase, `[2H]C([2H])([2H])N1C(=O)[C@@H](NC(=O)c2n[nH]c(Cc3ccccc3)n2)[C@@H](C)Oc2ccc(C#CCN3CCN(CC#C)CC3)cc21` [Compound I-14] returned an IC50 of 4.52 nM.

In the case of `[2H]C([2H])([2H])N1C(=O)[C@@H](NC(=O)c2n[nH]c(Cc3ccccc3)n2)[C@@H](C)Oc2ccc(C#CCN3CCN(CC#Cc4ccc5c(c4)N(C([2H])([2H])[2H])C(=O)[C@@H](NC(=O)c4n[nH]c(Cc6ccccc6)n4)[C@@H](C)O5)CC3)cc21` [Compound I-15], the IC50 against human RIP1 kinase came to 4.88 nM.

Take `C[C@H]1Oc2ccc(C#CCN3CCN(CC#Cc4ccc5c(c4)N(C)C(=O)[C@@H](NC(=O)c4ncn(Cc6ccccc6)n4)[C@@H](C)O5)CC3)cc2N(C)C(=O)[C@H]1NC(=O)c1ncn(Cc2ccccc2)n1` [Compound I-23]: the IC50 stood at 5.91 nM in the experiment on U937 cells; 2.68 nM in the experiment with HacaT cells; 26.4 nM in experiment [1] (Homo sapiens, HT-29); 17.8 nM in experiment [2] (Homo sapiens, PANC-1).

In turn, `[2H]C([2H])([2H])N1C(=O)[C@@H](NC(=O)c2ncn(Cc3ccccc3)n2)[C@@H](C)Oc2ccc(C#CCN3CCN(CC#C)CC3)cc21` [Compound I-35] showed an IC50 against human RIP1 kinase of 5.89 nM.

Regarding `C[C@H]1Oc2ccc(C#CCN3CCN(CC#Cc4ccc5c(c4)NC(=O)[C@@H](NC(=O)c4ncn(Cc6ccccc6)n4)[C@@H](C)O5)CC3)cc2NC(=O)[C@H]1NC(=O)c1ncn(Cc2ccccc2)n1` [Compound I-38], it took 4.18 nM to reach half-maximal inhibition against human RIP1 kinase (IC50).

The molecule `C#CCN1CCN(CC#Cc2ccc3c(c2)N(C)C(=O)[C@@H](NC(=O)c2ncn(Cc4ccccc4)n2)[C@H](C)O3)CC1` [Compound I-39] had an IC50 on human RIP1 kinase of 79 nM.

On human RIP1 kinase, `C[C@@H]1Oc2ccc(C#CCN3CCN(CC#Cc4ccc5c(c4)N(C)C(=O)[C@@H](NC(=O)c4ncn(Cc6ccccc6)n4)[C@@H](C)O5)CC3)cc2N(C)C(=O)[C@H]1NC(=O)c1ncn(Cc2ccccc2)n1` [Compound I-40] came in with an IC50 of 66.3 nM.

In turn, `CN1C(=O)[C@@H](NC(=O)c2n[nH]c(Cc3ccccc3)n2)COc2ccc(C#CCCCCC#Cc3ccc4c(c3)N(C)C(=O)[C@@H](NC(=O)c3n[nH]c(Cc5ccccc5)n3)CO4)cc21` [Compound I-80] gave an IC50 against human RIP1 kinase of 8.85 nM.

`C[C@H]1Oc2ccc(C#CCOCCOCCOCCOCCOCC#CC#CCOCCOCCOCCOCCOCC#Cc3ccc4c(c3)N(C)C(=O)[C@H](NC(=O)c3ncn(Cc5ccccc5)n3)[C@@H](C)O4)cc2N(C)C(=O)[C@@H]1NC(=O)c1ncn(Cc2ccccc2)n1` [Compound I-89]: the IC50 at human RIP1 kinase came out at 7.44 nM.

`CN1C(=O)[C@H](NC(=O)c2ncn(Cc3ccccc3)n2)COc2ccc(C#CCOCCOCCOCCOCCOCC#CC#CCOCCOCCOCCOCCOCC#Cc3ccc4c(c3)N(C)C(=O)[C@H](NC(=O)c3ncn(Cc5ccccc5)n3)CO4)cc21` [Compound I-90] displayed an IC50 on human RIP1 kinase of 6.29 nM.

Take `COCCOCCOCCOCCOCC#Cc1ccc2c(c1)N(C)C(=O)[C@@H](NC(=O)c1n[nH]c(Cc3ccccc3)n1)CO2` [Compound I-100]: the IC50 in the experiment with U937 cells turned out to be 3.14 nM; in the experiment with HacaT cells, 2.39 nM; in experiment [1] (Homo sapiens, HT-29), 8.65 nM; in experiment [2] (Homo sapiens, PANC-1), 12.5 nM.

As for `COCCOCCOCCOCCOCC#Cc1ccc2c(c1)N(C)C(=O)[C@@H](NC(=O)c1ncn(Cc3ccccc3)n1)[C@@H](C)O2` [Compound I-101], the IC50 with U937 cells is 5.62 nM; with HacaT cells, 2.95 nM; in experiment [1] (Homo sapiens, HT-29), 10.1 nM; in experiment [2] (Homo sapiens, PANC-1), 13.7 nM.

For `COCCOCCOCCOCCOCC#Cc1ccc2c(c1)N(C)C(=O)[C@@H](NC(=O)c1ncn(Cc3ccccc3)n1)CO2` [Compound I-102], the IC50 with U937 cells stood at 2.08 nM; with HacaT cells it was 3.58 nM; in experiment [1] (Homo sapiens, HT-29), 7.92 nM; in experiment [2] (Homo sapiens, PANC-1) it was 13.8 nM.

As to `CC(O)C#Cc1ccc2c(c1)N(C)C(=O)[C@@H](NC(=O)c1ncn(Cc3ccccc3)n1)[C@@H](C)O2` (stereo partly shown) [Compound I-104], the midpoint of inhibition at human RIP1 kinase, the IC50, lay at 10.2 nM.

With `C[C@H]1Oc2ccc(C#Cc3ccncc3)cc2N(C)C(=O)[C@H]1NC(=O)c1n[nH]c(Cc2ccccc2)n1` [Compound I-109], the IC50 in experiment [1] (Homo sapiens, HT-29) was found to be 13.1 nM; in experiment [2] (Homo sapiens, PANC-1) it was 12.6 nM.

As to `C[C@H]1Oc2ccc(C#Cc3ccncc3)cc2N(C)C(=O)[C@H]1NC(=O)c1ncn(Cc2ccccc2)n1` [Compound I-110], the IC50 in experiment [1] (Homo sapiens, HT-29) worked out at 10.9 nM; in experiment [2] (Homo sapiens, PANC-1) it was 11.1 nM.

With `C[C@H]1Oc2ccc(C#Cc3cccnc3)cc2N(C)C(=O)[C@H]1NC(=O)c1n[nH]c(Cc2ccccc2)n1` [Compound I-111], the IC50 in experiment [1] (Homo sapiens, HT-29) came to 13.7 nM; in experiment [2] (Homo sapiens, PANC-1) it was 12.4 nM.

On to `C[C@H]1Oc2ccc(C#Cc3cccnc3)cc2N(C)C(=O)[C@H]1NC(=O)c1ncn(Cc2ccccc2)n1` [Compound I-112], for which the results for the IC50 (on human RIP1 kinase; in experiment [1]; in experiment [2]) were 7.21 nM, 10 nM and 11.3 nM, respectively.

With `C[C@H]1Oc2ccc(C#Cc3cccc(N)c3)cc2N(C)C(=O)[C@H]1NC(=O)c1n[nH]c(Cc2ccccc2)n1` [Compound I-117], on human RIP1 kinase, the IC50 was found to be 12.7 nM.

For the molecule `C#Cc1ccc2c(c1)N(C)C(=O)[C@@H](NC(=O)c1nc(Cc3ccccc3)n[nH]1)[C@@H](C)O2` [Compound I-119], the IC50 with U937 cells was determined as 3.19 nM; in experiment [1] (Homo sapiens, HT-29) it was 15.3 nM; in experiment [2] (Homo sapiens, PANC-1), 17.1 nM.

As to `C#Cc1ccc2c(c1)N(C)C(=O)[C@@H](NC(=O)c1ncn(Cc3ccccc3)n1)[C@@H](C)O2` [Compound I-120], the IC50 in the experiment on U937 cells was determined as 4.05 nM; in experiment [1] (Homo sapiens, HT-29) it was 14.6 nM; in experiment [2] (Homo sapiens, PANC-1) it was 15.7 nM.

`CN1C(=O)[C@@H](NC(=O)c2ncn(Cc3ccccc3)n2)COc2ccc(CCCN3CCN(CCCc4ccc5c(c4)N(C)C(=O)[C@@H](NC(=O)c4ncn(Cc6ccccc6)n4)CO5)CC3)cc21` [Compound I-121]: in the experiment with U937 cells, the IC50 was 6.12 nM.

Turning to `C[C@H]1Oc2ccc(CCCN3CCN(CCCc4ccc5c(c4)N(C)C(=O)[C@@H](NC(=O)c4ncn(Cc6ccccc6)n4)[C@@H](C)O5)CC3)cc2N(C)C(=O)[C@H]1NC(=O)c1ncn(Cc2ccccc2)n1` [Compound I-122], the IC50 with U937 cells was found to be 7.14 nM.

For the molecule `CN1C(=O)[C@@H](NC(=O)c2n[nH]c(Cc3ccccc3)n2)COc2ccc(CCCN3CCN(CCCc4ccc5c(c4)N(C)C(=O)[C@@H](NC(=O)c4n[nH]c(Cc6ccccc6)n4)CO5)CC3)cc21` [Compound I-123], the IC50 in the experiment on U937 cells was 4.45 nM.

Turning to `C[C@H]1Oc2ccc(CCCN3CCN(CCCc4ccc5c(c4)N(C)C(=O)[C@@H](NC(=O)c4n[nH]c(Cc6ccccc6)n4)[C@@H](C)O5)CC3)cc2N(C)C(=O)[C@H]1NC(=O)c1n[nH]c(Cc2ccccc2)n1` [Compound I-124], the IC50 in the experiment with U937 cells was 6.75 nM.

Consider `CN1C(=O)[C@@H](NC(=O)c2n[nH]c(Cc3ccccc3)n2)COc2ccccc21` [Control compound 3, reference compound], for which the 50% inhibitory concentration (IC50) in the experiment on U937 cells was 7.15 nM; with HacaT cells, 9.92 nM; in experiment [1] (Homo sapiens, HT-29), > 100 nM; in experiment [2] (Homo sapiens, PANC-1), 51.3 nM.
